Measurements as given in patent US20110195845A1, “Constructs for Expressing Herbicide Tolerance Genes, Related Plants, and Related Trait Combinations” (Dow AgroSciences LLC, priority 2008, published 2011).

Legend:
E. coli BL21-Star (DE3) = experiment: Bacterial strain response to glufosinate on minimal media; assay type: cell-based, Escherichia coli; design: key to bacterial growth on minimal media: +++ = Heavy Lawn Growth; ++ = Light lawn growth; + = patchy lawn growth; −− = No Growth; conditions: for bacterial growth on minimal media: 24 hrs @ 37 C
Method: (§1) Selected cell lines of Escherichia coli and Agrobacterium tumefaciens were inoculated on minimal media containing incrementally increasing concentrations of Glufosinate (BASTA). The cell lines; BL21-Star (DE3), Top10, DH5α, Agrobacterium tumefaciens C58, and Agrobacterium tumefaciens LBA4404s were initially grown up on complex media. The Escherichia coli strains were grown in LB and the Agrobacterium tumefaciens strains were grown in YEP. Five microliters of bacterial culture was inoculated and dispersed evenly onto minimal media plates containing various concentrations of glufosinate. The concentrations consisted of 0 μg/ml, 250 μg/ml, 500 μg/ml, 1000 μg/ml, 2000 μg/ml, and 4000 μg/ml of BASTA. In addition, the bacterial strains were inoculated onto a plate of complex media as a control—Agrobacterium tumefaciens strains were inoculated on YEP agar plates, and Escherichia coli strains were inoculated on LB agar plates. The plates containing the Escherichia coli strains were incubated at 37° C. for 24 hours. The plates containing the Agrobacterium tumefaciens strains were incubate at 25° C. for 48 hours. […] Table 7 illustrates the capability of the various strains to grow on minimal media containing glufosinate.

E. coli DH5α = experiment: as above; assay type: cell-based, Escherichia coli; design: key: +++ = Heavy Lawn Growth; ++ = Light lawn growth; + = patchy lawn growth; −− = No Growth; conditions: 24 hrs @ 37 C
Method: as §1

E. coli Top10 = experiment: as above; assay type: cell-based, Escherichia coli; design: key: +++ = Heavy Lawn Growth; ++ = Light lawn growth; + = patchy lawn growth; −− = No Growth; conditions: 24 hrs @ 37 C
Method: as §1

[1] = system: Escherichia coli BL21-Star (DE3) with empty pET vector; experiment: Complementation of cell growth on glufosinate, empty pET vector (control); assay type: cell-based; design: key: +++ = Heavy Lawn Growth; ++ = Light lawn growth; + = patchy lawn growth; −− = No Growth; conditions: 24 hrs @28 C, 20 uM IPTG
From the text: A pET28a(+) expression plasmid containing PAT (v3) was constructed as a positive control. PAT (v3) was cloned as an NcoI-SacI fragment into corresponding restriction sites of pDAB779. Positive clones containing the PAT (v3) gene fragment were verified via restriction enzyme digestion. This construct was labeled as pDAB4434.
The plasmids, pDAB4434, pDAB4412, and an empty pET vector (control) were transformed into Escherichia coli BL21-Star (DE3) bacterial cells. Expression cultures were initiated with 10-200 freshly transformed colonies into 250 mL LB medium containing 50 μg/ml antibiotic and 75 μM IPTG (isopropyl-[…]). The cultures were grown at 28° C. for 24 hours at 180-200 rpm. Five microliters of the culture was inoculated onto a complex media control and minimal media containing incrementally increasing concentrations of glufosinate and 20 μM IPTG. The cultures were dispersed evenly over the plates and incubated at 28° C. for 24 hours.

[2] = system: Escherichia coli BL21-Star (DE3) with AtUbi10 promoter//DSM-2 (v2) (3778); experiment: Plant promoter driven complementation on glufosinate, plasmid 3778; assay type: cell-based; design: bacterial growth on minimal media: key: ++++ = Heavy Lawn Growth; +++ = Lawn Growth; ++ = Lots of Distinct Colonies; + = Scattered Colony Growth; conditions: for bacterial growth on minimal media: 48 hrs @37 C
Method: (§2) Plasmid constructs in which the DSM-2 (v2) and PAT gene coding sequences were expressed, under either the viral promoters CsVMV or the plant promoter AtUbi10, were assayed for complementation on minimal media containing glufosinate. The plasmids 3778 (Rb7 MARv3//AtUbi10 promoter//DSM-2 (v2)//Atu Orf 1 3′UTR), 3779 (Rb7 MARv3//AtUbi10 promoter//PAT//Atu Orf 1 3′UTR), 3264 (CsVMV promoter//DSM-2//Atu Orf 24 3′UTR), 3037 (CsVMV promoter//PAT//Atu Orf 25/26 3′UTR), and 770 (control plasmid containing CsVMV promoter//GUS v3//Atu Orf 24 3′UTR) were transformed into Escherichia coli BL21-Star (DE3) and grown up in complex media. Five microliters of the cultures were plated on minimal media containing increasing concentrations of Glufosinate and incubated at 37° C. for 48 hours.

[3] = system: Escherichia coli BL21-Star (DE3) with CsVMV promoter//PAT (3037); experiment: Viral promoter driven complementation on glufosinate, plasmid 3037; assay type: cell-based; conditions: 48 hrs @37 C; further: key: ++++ = Heavy Lawn Growth; +++ = Lawn Growth; ++ = Lots of Distinct Colonies; + = Scattered Colony Growth
Method: as §2

[4] = system: T0 DSM-2 (v2)-transformed corn plants; experiment: Leaf paint with glufosinate in T0 corn; assay type: in vivo; conditions: for % Injury: 2 WAT
Method: T0 DSM-2 (v2) plants were painted with a rundown of glufosinate herbicide. Four siblings from each of 15 T0 events were tested, and 4 leaves on each individual plant received a rundown of glufosinate at approximately V8 stage. Rundown treatments were randomized for each rate allowing for variation of treatment location on individual leaves. For corn, 0.25% v/v glufosinate is the minimum effective dose to distinguish sensitive plants from ones with meaningful levels of resistance. Elevated rates were also applied to determine relative levels of resistance (0.5%, 1.0%, and 2.0% v/v). Glufosinate treatments were applied using cotton tipped applicators to a treatment area of approximately 2.5 cm in diameter.
Table 11 compares the response of DSM-2 (v2) and control genes to impart glufosinate resistance to corn T0 transformants. Response is presented in terms of % visual injury 2 WAT. […] Since each T0 is an independent transformation event, one can expect significant variation of individual T0 responses within a given rate. An arithmetic mean and standard deviation is presented for each treatment. Untransformed wildtype corn served as a glufosinate sensitive control. The DSM-2 (v2) gene imparted herbicide resistance to individual T0 corn plants. Within a given treatment, the level of plant response varied greatly and can be attributed to the fact each plant represents an independent transformation event.

Q: How did the “bacterial growth on minimal media” value (E. coli BL21-Star (DE3); 250 μg/ml BASTA) turn out when `CP(=O)(O)CCC(N)C(=O)O` (centres unmarked) [glufosinate] was run?
A: The value was “−−”.

Q: And the “bacterial growth on minimal media” value (E. coli BL21-Star (DE3); 500 μg/ml BASTA)?
A: The value was “−−”.

Q: And the “bacterial growth on minimal media” value (E. coli BL21-Star (DE3); 1000 μg/ml BASTA)?
A: Its value is “−−”.

Q: What about the “bacterial growth on minimal media” value (E. coli BL21-Star (DE3); 2000 μg/ml BASTA) of the same molecule?
A: Its value is “−−”.

Q: What about the “bacterial growth on minimal media” value (E. coli BL21-Star (DE3); 4000 μg/ml BASTA) of the same molecule?
A: The value was “−−”.

Q: What about the “concentration in minimal media at which the cell line was inhibited” value (E. coli BL21-Star (DE3); minimal media) of the same molecule?
A: The value was 100 µg/mL.

Q: And the “inhibition of strain by glufosinate” value (E. coli BL21-Star (DE3); minimal media, 250-4000 μg/ml BASTA)?
A: Its value is “substantially inhibited”.

Q: What about the “bacterial growth on minimal media” value (E. coli DH5α; 250 μg/ml BASTA) of the same molecule?
A: The value was “+++”.

Q: And the “bacterial growth on minimal media” value (E. coli DH5α; 500 μg/ml BASTA)?
A: Its value is “+++”.

Q: And the “bacterial growth on minimal media” value (E. coli DH5α; 1000 μg/ml BASTA)?
A: The value was “+++”.

Q: And the “bacterial growth on minimal media” value (E. coli DH5α; 2000 μg/ml BASTA)?
A: The value was “+++”.

Q: And the “bacterial growth on minimal media” value (E. coli DH5α; 4000 μg/ml BASTA)?
A: The value was “−−”.

Q: And the “bacterial growth on minimal media” value (E. coli Top10; 250 μg/ml BASTA)?
A: Its value is “+++”.

Q: And the “bacterial growth on minimal media” value (E. coli Top10; 500 μg/ml BASTA)?
A: Its value is “+++”.

Q: And the “bacterial growth on minimal media” value (E. coli Top10; 1000 μg/ml BASTA)?
A: The value was “+++”.

Q: What about the “bacterial growth on minimal media” value (E. coli Top10; 2000 μg/ml BASTA) of the same molecule?
A: The value was “+”.

Q: And the “bacterial growth on minimal media” value (E. coli Top10; 4000 μg/ml BASTA)?
A: Its value is “−−”.

Q: And the “bacterial growth on minimal media” value ([1]; 250 μg/ml BASTA)?
A: The value was “−−”.

Q: And the “bacterial growth on minimal media” value ([1]; 500 μg/ml BASTA)?
A: Its value is “−−”.

Q: What about the “bacterial growth on minimal media” value ([1]; 1000 μg/ml BASTA) of the same molecule?
A: The value was “−−”.

Q: What about the “bacterial growth on minimal media” value ([1]; 2000 μg/ml BASTA) of the same molecule?
A: Its value is “−−”.

Q: And the “bacterial growth on minimal media” value ([1]; 4000 μg/ml BASTA)?
A: Its value is “−−”.

Q: And the “bacterial growth on minimal media” value ([2]; 250 μg/ml BASTA)?
A: Its value is “++++”.

Q: What about the “bacterial growth on minimal media” value ([2]; 500 μg/ml BASTA) of the same molecule?
A: The value was “+++”.

Q: And the “bacterial growth on minimal media” value ([2]; 1000 μg/ml BASTA)?
A: Its value is “+++”.

Q: And the “bacterial growth on minimal media” value ([2]; 2000 μg/ml BASTA)?
A: Its value is “++”.

Q: What about the “bacterial growth on minimal media” value ([2]; 4000 μg/ml BASTA) of the same molecule?
A: Its value is “++”.

Q: And the “concentration in minimal media to which promoter-driven DSM-2 provided resistance” value ([2]; At Ubi10 promoter, minimal media)?
A: Its value is 200 µg/mL.

Q: What about the “bacterial growth on minimal media” value ([3]; 250 μg/ml BASTA) of the same molecule?
A: Its value is “++”.

Q: What about the “bacterial growth on minimal media” value ([3]; 500 μg/ml BASTA) of the same molecule?
A: The value was “+”.

Q: What about the “% Injury” value ([4]; 0.25% v/v glufosinate leaf paint) of the same molecule?
A: Its value is 0%.

Q: What about the “% Injury” value ([4]; 0.5% v/v glufosinate leaf paint) of the same molecule?
A: The value was 1%.

Q: And the “% Injury” value ([4]; 1% v/v glufosinate leaf paint)?
A: Its value is 2%.

Q: What about the “% Injury” value ([4]; 2% v/v glufosinate leaf paint) of the same molecule?
A: The value was 4%.

Q: What about the “performance compared to PAT-transformed plants” value ([4]; up to 2% v/v glufosinate) of the same molecule?
A: Its value is “performs better overall than PAT-transformed plants”.
